Laboratory results as given in patent US9505749B2, “Quinazolinone compounds and derivatives thereof” (AMGEN INC., priority 2012, dated 2016).

Legend:
[1] = molecular target: 6×HIS-tankyrase1 (1091-1325) (Homo sapiens (Human), UniProt O95271); experiment: Tankyrase 1 biochemical assay (AlphaLisa, PARsylation); settings: 400 nM NAD, 60 minutes at RT; read-out: TNKS1 IC50
[2] = molecular target: 6×HIS-tankyrase 2 (946-1162) (Homo sapiens (Human), UniProt Q9H2K2); experiment: Tankyrase 2 biochemical assay (AlphaLisa, PARsylation); settings: 250 nM NAD; read-out: TNKS2 IC50
[3] = tested on: Axin2 accumulation in SW480 cells; experiment: Axin2 384 immunofluorescence assay; assay type: cell-based; settings: Homo sapiens; SW480 cells, 24 hours; read-out: Axin2 384 IF EC50
[4] = molecular target: PARP1 (Homo sapiens (Human), UniProt P09874); experiment: PARP1 biochemical assay (Trevigen kit)
Source text: PARP1 biochemical assay was purchased as a kit from Trevigen (cat.#4676-096-K) and used per manufacturers recommendations.

[5] = molecular target: PARP2 (Homo sapiens (Human), UniProt Q9UGN5); experiment: PARP2 biochemical assay (BPS kit)
[6] = tested on: total β-catenin in SW480 colorectal cells; experiment: Total β-catenin MSD 96-well plate assay for SW480 cells; settings: Homo sapiens, SW480, read-out: SW480-Total beta-catenin (TBC) IC50 IP

Sequence of PARP1 (P09874 whole entry): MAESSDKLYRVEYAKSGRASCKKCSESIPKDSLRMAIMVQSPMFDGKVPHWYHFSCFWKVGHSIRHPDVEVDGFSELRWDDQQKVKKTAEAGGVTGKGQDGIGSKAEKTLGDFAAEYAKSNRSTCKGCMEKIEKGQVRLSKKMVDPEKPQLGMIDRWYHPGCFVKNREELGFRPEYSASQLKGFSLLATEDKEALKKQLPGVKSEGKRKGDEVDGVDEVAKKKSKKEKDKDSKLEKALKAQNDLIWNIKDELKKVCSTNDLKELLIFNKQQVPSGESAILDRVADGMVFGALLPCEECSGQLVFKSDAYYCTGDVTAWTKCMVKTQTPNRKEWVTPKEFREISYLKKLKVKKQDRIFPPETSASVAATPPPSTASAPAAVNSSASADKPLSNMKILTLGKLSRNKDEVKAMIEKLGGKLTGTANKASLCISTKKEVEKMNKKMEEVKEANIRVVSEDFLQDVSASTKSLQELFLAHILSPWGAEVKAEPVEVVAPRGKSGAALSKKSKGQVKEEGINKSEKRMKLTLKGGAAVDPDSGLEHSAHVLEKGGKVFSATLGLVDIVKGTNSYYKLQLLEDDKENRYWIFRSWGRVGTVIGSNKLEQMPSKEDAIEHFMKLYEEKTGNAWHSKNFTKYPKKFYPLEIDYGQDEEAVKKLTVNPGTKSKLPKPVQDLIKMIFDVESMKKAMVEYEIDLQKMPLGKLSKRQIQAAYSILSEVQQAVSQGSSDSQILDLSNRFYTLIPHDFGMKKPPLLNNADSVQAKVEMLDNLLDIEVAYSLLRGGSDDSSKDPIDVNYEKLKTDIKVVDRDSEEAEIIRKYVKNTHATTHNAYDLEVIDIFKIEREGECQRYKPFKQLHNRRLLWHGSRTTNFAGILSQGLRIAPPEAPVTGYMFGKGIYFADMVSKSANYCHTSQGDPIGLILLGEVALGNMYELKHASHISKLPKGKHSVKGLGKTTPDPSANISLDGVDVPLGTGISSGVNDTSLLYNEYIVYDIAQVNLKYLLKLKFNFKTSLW
Sequence of 6×HIS-tankyrase 2 (946-1162) (Q9H2K2 946-1162): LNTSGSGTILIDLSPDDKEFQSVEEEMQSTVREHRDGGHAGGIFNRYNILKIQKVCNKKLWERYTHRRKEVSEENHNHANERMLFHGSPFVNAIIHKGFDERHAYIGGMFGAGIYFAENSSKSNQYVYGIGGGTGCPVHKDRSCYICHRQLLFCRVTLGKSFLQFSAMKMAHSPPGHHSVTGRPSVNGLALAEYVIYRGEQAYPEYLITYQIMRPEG
Sequence of 6×HIS-tankyrase1 (1091-1325) (O95271 1091-1325): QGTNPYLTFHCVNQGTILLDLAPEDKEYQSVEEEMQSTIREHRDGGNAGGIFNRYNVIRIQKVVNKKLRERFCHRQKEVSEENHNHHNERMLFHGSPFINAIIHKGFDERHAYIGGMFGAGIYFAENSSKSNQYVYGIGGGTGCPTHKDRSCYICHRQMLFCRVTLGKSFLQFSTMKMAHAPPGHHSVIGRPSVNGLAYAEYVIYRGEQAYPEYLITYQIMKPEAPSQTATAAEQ
Sequence of PARP2 (Q9UGN5 whole entry): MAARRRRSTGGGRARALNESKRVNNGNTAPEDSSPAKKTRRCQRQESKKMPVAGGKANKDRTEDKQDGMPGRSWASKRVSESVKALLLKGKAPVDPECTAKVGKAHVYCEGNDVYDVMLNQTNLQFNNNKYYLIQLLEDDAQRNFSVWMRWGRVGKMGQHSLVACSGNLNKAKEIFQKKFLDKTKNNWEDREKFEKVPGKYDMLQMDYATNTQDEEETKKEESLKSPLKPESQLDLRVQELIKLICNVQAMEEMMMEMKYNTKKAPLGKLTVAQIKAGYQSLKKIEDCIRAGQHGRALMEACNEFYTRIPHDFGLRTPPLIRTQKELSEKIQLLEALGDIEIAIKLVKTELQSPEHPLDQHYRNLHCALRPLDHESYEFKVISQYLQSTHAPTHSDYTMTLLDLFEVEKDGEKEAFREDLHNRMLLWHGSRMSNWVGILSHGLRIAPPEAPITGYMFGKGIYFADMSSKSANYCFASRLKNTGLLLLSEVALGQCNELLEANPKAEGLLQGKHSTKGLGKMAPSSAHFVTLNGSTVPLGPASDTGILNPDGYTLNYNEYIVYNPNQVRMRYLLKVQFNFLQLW

In the case of `O=C(CCCc1nc2ccccc2c(=O)[nH]1)N1CCC(n2c(=O)oc3cc(F)ccc32)CC1` [Example 53, 2-(4-(4-(6-fluoro-2-oxo-1,3-benzoxazol-3(2H)-yl)-1-piperidinyl)-4-oxobutyl)-4(3H)-quinazolinone trifluoroacetic acid], the IC50 [1] is reported as 3.17 nM, the IC50 [2] is reported as 0.593 nM and the EC50 [3] is reported as 359 nM. The IC50 [4] was 2570 nM, the IC50 [5] was 998 nM and the IC50 [6] was 50.3 nM.
`Cn1c(=O)n(C2CCN(C(=O)CCCc3nc4ccccc4c(=O)[nH]3)CC2)c2ccccc21` [Example 54, 2-(4-(4-(3-methyl-2-oxo-2,3-dihydro-1H-benzimidazol-1-yl)-1-piperidinyl)-4-oxobutyl)-4(3H)-quinazolinone] showed an IC50 [1] of 39.1 nM, an IC50 [2] of 17 nM and an EC50 [3] of 3630 nM. For the same compound, the IC50 [4] was 3200 nM, the IC50 [5] was 673 nM and the IC50 [6] was 1120 nM.
`O=C(CCCc1nc2ccccc2c(=O)[nH]1)N1CCN(c2n[nH]c3ccccc23)CC1` [Example 55, 2-(4-(4-(1H-indazol-3-yl)-1-piperazinyl)-4-oxobutyl)-4(3H)-quinazolinone] was tested, and the IC50 [1] was 1.76 nM, the IC50 [2] was 0.401 nM and the EC50 [3] was 193 nM. For the same compound, the IC50 [4] was 1800 nM, the IC50 [5] was 284 nM and the IC50 [6] was 46.5 nM.
Compound `O=C(CCCc1nc2ccccc2c(=O)[nH]1)N[C@H]1CC[C@H](Oc2ccccn2)CC1` [Example 56, 4-(4-oxo-3,4-dihydro-2-quinazolinyl)-N-(trans-4-(2-pyridinyloxyl)cyclohexyl)butanamide] has an IC50 [1] of 2.51 nM, an IC50 [2] of 0.719 nM and an EC50 [3] of 266 nM. It also gave an IC50 [4] of 5820 nM, an IC50 [5] of 1100 nM and an IC50 [6] of 73.6 nM.
For `N#Cc1ccccc1O[C@H]1CC[C@H](NC(=O)CCCc2nc3ccccc3c(=O)[nH]2)CC1` [Example 57, N-(trans-4-(2-cyanophenoxy)cyclohexyl)-4-(4-oxo-3,4-dihydro-2-quinazolinyl)butanamide], the IC50 [1] was 31.2 nM, the IC50 [2] was 12.5 nM and the EC50 [3] was 1710 nM. For the same compound, the IC50 [4] was 5960 nM, the IC50 [5] was 905 nM and the IC50 [6] was 510 nM.
`N#Cc1cccc(O[C@H]2CC[C@H](NC(=O)CCCc3nc4ccccc4c(=O)[nH]3)CC2)c1` [Example 58, N-(trans-4-(3-cyanophenoxy)cyclohexyl)-4-(4-oxo-3,4-dihydro-2-quinazolinyl)butanamide] gave an IC50 [1] of 3.26 nM, an IC50 [2] of 1.25 nM and an EC50 [3] of 354 nM. The IC50 [4] was 1580 nM, the IC50 [5] was 983 nM and the IC50 [6] was 98.9 nM.
In the case of `O=C(CCCc1nc2ccccc2c(=O)[nH]1)N[C@H]1CC[C@H](Oc2cccnc2)CC1` [Example 59, 4-(4-oxo-3,4-dihydro-2-quinazolinyl)-N-(trans-4-(3-pyridinyloxyl)cyclohexyl)butanamide], the IC50 [1] is reported as 11.8 nM, the IC50 [2] is reported as 2.39 nM and the EC50 [3] is reported as 951 nM. For the same compound, the IC50 [4] was 1900 nM, the IC50 [5] was 371 nM and the IC50 [6] was 208 nM.
In the case of `N#Cc1cccc2c1[nH]c(=O)n2C1CCN(C(=O)CCCc2nc3ccccc3c(=O)[nH]2)CC1` [Example 61, 2-oxo-1-(1-(4-(4-oxo-3,4-dihydro-2-quinazolinyl)butanoyl)-4-piperidinyl)-2,3-dihydro-1H-benzimidazole-4-carbonitrile], the IC50 [1] is reported as 0.873 nM, the IC50 [2] is reported as 0.206 nM and the EC50 [3] is reported as 217 nM. The IC50 [4] was 464 nM, the IC50 [5] was 349 nM and the IC50 [6] was 302 nM.
`N#Cc1cc(O[C@H]2CC[C@H](NC(=O)CCCc3nc4ccccc4c(=O)[nH]3)CC2)ccc1Cl` [Example 63, N-(trans-4-(4-chloro-3-cyanophenoxy)cyclohexyl)-4-(4-oxo-3,4-dihydro-2-quinazolinyl)butanamide] was tested, and the IC50 [1] was 2.33 nM, the IC50 [2] was 0.653 nM and the EC50 [3] was 270 nM. The IC50 [4] was 586 nM, the IC50 [5] was 802 nM and the IC50 [6] was 211 nM.
Work on `O=C(CCCc1nc2ccccc2c(=O)[nH]1)N[C@H]1CC[C@H](Oc2cccc(Cl)c2)CC1` [Example 66, N-(trans-4-(3-chlorophenoxy)cyclohexyl)-4-(4-oxo-3,4-dihydro-2-quinazolinyl)butanamide] yielded an IC50 [1] of 3.11 nM, an IC50 [2] of 1.02 nM and an EC50 [3] of 628 nM. The IC50 [4] was 1390 nM, the IC50 [5] was 998 nM and the IC50 [6] was 614 nM.
Work on `O=C(CCCc1nc2ccccc2c(=O)[nH]1)N1CCC(n2c(=O)[nH]c3c(F)cccc32)CC1` [Example 67, 2-(4-(4-(4-fluoro-2-oxo-2,3-dihydro-1H-benzimidazol-1-yl)-1-piperidinyl)-4-oxobutyl)-4(3H)-quinazolinone] yielded an IC50 [1] of 3.93 nM, an IC50 [2] of 1.68 nM and an EC50 [3] of 552 nM. For the same compound, the IC50 [4] was 1280 nM, the IC50 [5] was 681 nM and the IC50 [6] was 980 nM.
With `N#Cc1ccc2c(c1)[nH]c(=O)n2C1CCN(C(=O)CCCc2nc3ccccc3c(=O)[nH]2)CC1` [Example 68, 2-oxo-1-(1-(4-(4-oxo-3,4-dihydro-2-quinazolinyl)butanoyl)-4-piperidinyl)-2,3-dihydro-1H-benzimidazole-5-carbonitrile] the IC50 [1] was 0.783 nM, the IC50 [2] was 0.292 nM and the EC50 [3] was 239 nM. For the same compound, the IC50 [4] was 636 nM, the IC50 [5] was 227 nM and the IC50 [6] was 161 nM.
`O=C(CCCc1nc2ccccc2c(=O)[nH]1)N1CCN(c2nsc3ccccc23)CC1` [Example 69, 2-(4-(4-(1,2-benzisothiazol-3-yl)-1-piperazinyl)-4-oxobutyl)-4(3H)-quinazolinone] was tested, and the IC50 [1] was 407 nM, the IC50 [2] was 451 nM and the EC50 [3] was 686 nM. The IC50 [4] was 1760 nM, the IC50 [5] was 317 nM and the IC50 [6] was 2560 nM.
Work on `O=C(CCCc1nc2ccccc2c(=O)[nH]1)N[C@H]1CC[C@H](Oc2ccncc2)CC1` [Example 70, 4-(4-oxo-3,4-dihydro-2-quinazolinyl)-N-(trans-4-(4-pyridinyloxyl)cyclohexyl)butanamide] yielded an IC50 [1] of 5.1 nM, an IC50 [2] of 0.826 nM and an EC50 [3] of 191 nM. The IC50 [4] was 723 nM, the IC50 [5] was 1810 nM and the IC50 [6] was 252 nM.
`O=C(CCCc1nc2ccccc2c(=O)[nH]1)N[C@H]1CC[C@H](Oc2ccc(F)cc2)CC1` [Example 77, N-(trans-4-(4-fluorophenoxy)cyclohexyl)-4-(4-oxo-3,4-dihydro-2-quinazolinyl)butanamide] was tested, and the IC50 [1] was 4.37 nM, the IC50 [2] was 0.601 nM and the EC50 [3] was 601 nM. For the same compound, the IC50 [4] was 1710 nM, the IC50 [5] was 1820 nM and the IC50 [6] was 119 nM.
`N#Cc1ccc(O[C@H]2CC[C@H](NC(=O)CCCc3nc4ccccc4c(=O)[nH]3)CC2)cc1` [Example 78, N-(trans-4-(4-cyanophenoxy)cyclohexyl)-4-(4-oxo-3,4-dihydro-2-quinazolinyl)butanamide] gave an IC50 [1] of 2.23 nM, an IC50 [2] of 0.434 nM and an EC50 [3] of 49.2 nM. The IC50 [4] was 558 nM, the IC50 [5] was 246 nM and the IC50 [6] was 7.14 nM.
For `O=C(CCCc1nc2ccccc2c(=O)[nH]1)N[C@H]1CC[C@H](Oc2ccc(Cl)cc2)CC1` [Example 79, N-(trans-4-(4-chlorophenoxy)cyclohexyl)-4-(4-oxo-3,4-dihydro-2-quinazolinyl)butanamide], the IC50 [1] was 2.85 nM, the IC50 [2] was 0.614 nM and the EC50 [3] was 192 nM. It also gave an IC50 [4] of 2550 nM, an IC50 [5] of 292 nM and an IC50 [6] of 42.3 nM.
`O=C(CCSc1nc2ccccc2c(=O)[nH]1)N1CCC(c2nnc(-c3ccccc3)o2)CC1` [Example 83, 2-((3-oxo-3-(4-(5-phenyl-1,3,4-oxadiazol-2-yl)piperidin-1-yl)propyl)thio)quinazolin-4(3H)-one] was tested, and the IC50 [1] was 31.4 nM, the IC50 [2] was 12.5 nM and the EC50 [3] was 2680 nM. It also gave an IC50 [4] of 1510 nM, an IC50 [5] of 345 nM and an IC50 [6] of 726 nM.
